The source made the active and inactive calls. The calls are words filed in the database; no cut-off is given here.
What was measured:
[1] = test system: LLC-PK1; assay: Nephroprotective activity against cisplatin induced cytotoxicity in pig LLC-PK1 cells assessed as increase in cell viability at 50 uM incubated for 24 hrs by MTT assay; assay type: functional, Sus scrofa
[2] = test system: LLC-PK1; assay: Nephroprotective activity against cisplatin induced cytotoxicity in pig LLC-PK1 cells assessed as decrease in phosphorylated ERK level at 125 uM incubated for 24 hrs by Western blot analysis; assay type: functional, cell-based; conditions: Sus scrofa
[3] = test system: LLC-PK1; assay: Nephroprotective activity against cisplatin induced cytotoxicity in pig LLC-PK1 cells assessed as increase in cell viability at 125 uM incubated for 24 hrs by MTT assay; assay type: functional, Sus scrofa
[4] = test system: LLC-PK1; assay: Nephroprotective activity against cisplatin induced apoptosis in pig LLC-PK1 cells assessed as decrease in ratio of apoptotic cells at 125 uM incubated for 24 hrs by annexin V staining based image cytometric analysis; assay type: functional, cell-based; conditions: Sus scrofa
[5] = test system: LLC-PK1; assay: Nephroprotective activity against cisplatin induced cytotoxicity in pig LLC-PK1 cells assessed as increase in cell viability at 25 uM incubated for 24 hrs by MTT assay; assay type: functional, Sus scrofa
[6] = test system: LLC-PK1; assay: Nephroprotective activity against cisplatin induced cytotoxicity in pig LLC-PK1 cells assessed as decrease in phosphorylated JNK level at 125 uM incubated for 24 hrs by Western blot analysis; assay type: functional, cell-based; conditions: Sus scrofa
[7] = test system: LLC-PK1; assay: Nephroprotective activity against cisplatin induced cytotoxicity in pig LLC-PK1 cells assessed as increase in cell viability at 250 uM incubated for 24 hrs by MTT assay; assay type: functional, Sus scrofa
[8] = test system: LLC-PK1; assay: Nephroprotective activity against cisplatin induced cytotoxicity in pig LLC-PK1 cells assessed as decrease in cleaved caspase-3 level at 125 uM incubated for 24 hrs by Western blot analysis; assay type: functional, cell-based; conditions: Sus scrofa

SMILES: COc1cc(Br)c(/C=C/C(=N/O)c2ccc(Br)cc2)cc1OC
- Activity [1]: 83.86%
- Activity [2]: Active
- Activity [3]: 83.79%
- Activity [4]: Active
- Activity [5]: 66.83%
- Activity [6]: Active
- Activity [7]: 94.78%
- Activity [8]: Active

SMILES: COc1cc(Br)c(/C=C/C(=N/O)c2ccc(Cl)cc2)cc1OC
- Activity [1]: 82.22%
- Activity [2]: Active
- Activity [3]: 84.41%
- Activity [4]: Active
- Activity [6]: Active
- Activity [7]: 94.51%
- Activity [8]: Active

— ChEMBL document CHEMBL5223153, “Elucidation of protective effects of oxime derivatives against cisplatin-induced cytotoxicity in LLC-PK1 kidney cells” (2023)
